compound: CO[C@@H]1[C@H](N(C)C(=O)c2ccccc2)C[C@H]2O[C@]1(C)n1c3ccccc3c3c4c(c5c6ccccc6n2c5c31)C(=O)NC4 [Midostaurin] + Nc1ncn([C@H]2C[C@H](O)[C@@H](CO)O2)c(=O)n1 [Decitabine] (partner 2 µM); assay: relative viability (nuclei count vs DMSO), 5 days (fraction); higher = more cells survive; conditions: first compound 0.03162 µM
How it was run: (§1)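 The day after seeding in 1536-well plates, lung cancer cell lines were treated by pin tool with a single drug, or with a fixed anchor-drug dose together with five library-drug doses (not always all listed) in √10 steps. After 5 days, a combined fix-and-stain solution (final 0.05% Triton X-100, 1% formaldehyde, 1 ug/ml Hoechst) was added. Nuclei counted on 4× images gave relative viability as treated counts over vehicle counts, reported as the median of duplicate plates.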

Cell Line	relative viability
COR-L23	0.441
COR-L 105	0.633
NCI-H2170	0.495
A549	0.221
NCI-H522	0.638
SW 900	0.491
NCI-H2009	0.353
NCI-H661	0.611
SK-LU-1	0.724
NCI-H1395	0.81
NCI-H2023	0.273
NCI-H1793	0.551
NCI-H1944	0.439
ABC-1	1.14
NCI-H358	0.236

same assay, conditions: first compound 0.1 µM

Cell Line	relative viability
NCI-H2342	0.716
NCI-H727	0.925
NCI-H1650	0.426
NCI-H1993	0.693
SW 1573	0.524
NCI-H838	0.385
LCLC-103H	0.752
NCI-H520	0.514
NCI-H2126	0.612
EMC-BAC-2	0.897
NCI-H2085	0.607
HCC-366	0.325
NCI-H1666	0.777
NCI-H596	1.07
LK-2	0.405
SK-MES-1	0.333

Cell Line	relative viability
COR-L23	0.448
COR-L 105	0.622
NCI-H2170	0.441
A549	0.216
NCI-H522	0.822
SW 900	0.439
NCI-H2009	0.351
NCI-H661	0.598
SK-LU-1	0.595
NCI-H1395	0.712
NCI-H2023	0.223
NCI-H1793	0.493
NCI-H1944	0.375
ABC-1	0.942
NCI-H358	0.231

same assay, conditions: first compound 0.3162 µM

Cell Line	relative viability
NCI-H2342	0.827
NCI-H727	0.932
NCI-H1650	0.517
NCI-H1993	0.576
SW 1573	0.476
NCI-H838	0.328
LCLC-103H	0.757
NCI-H520	0.427
NCI-H2126	0.613
EMC-BAC-2	0.818
NCI-H2085	0.523
HCC-366	0.298
NCI-H1666	0.716
NCI-H596	1.12
LK-2	0.299
NCI-H1648	0.446

Cell Line	relative viability
SK-MES-1	0.381
COR-L23	0.434
COR-L 105	0.605
NCI-H2170	0.456
A549	0.222
NCI-H522	0.525
SW 900	0.433
NCI-H2009	0.361
NCI-H661	0.596
SK-LU-1	0.597
NCI-H1395	0.702
NCI-H2023	0.201
NCI-H1793	0.359
NCI-H1944	0.394
ABC-1	1.26
NCI-H358	0.25

compound: CO[C@@H]1[C@H](N(C)C(=O)c2ccccc2)C[C@H]2O[C@]1(C)n1c3ccccc3c3c4c(c5c6ccccc6n2c5c31)C(=O)NC4 [Midostaurin] + CC(=O)Nc1cccc(-n2c(=O)n(C3CC3)c(=O)c3c(Nc4ccc(I)cc4F)n(C)c(=O)c(C)c32)c1 [Trametinib] (partner 0.02 µM); assay: as above; conditions: first compound 0.01 µM
How it was run: as §1

Cell Line	relative viability
NCI-H2342	0.895
NCI-H727	0.381
NCI-H1650	0.64
NCI-H1993	0.484
SW 1573	0.547
NCI-H838	0.518
LCLC-103H	0.723
NCI-H520	0.768
NCI-H2126	0.509
EMC-BAC-2	0.853
NCI-H2085	0.526
HCC-366	0.304
NCI-H1666	0.823
NCI-H596	0.835
LK-2	0.767
NCI-H1648	0.532

Cell Line	relative viability
SK-MES-1	0.57
COR-L23	0.599
COR-L 105	0.483
NCI-H2170	0.965
NCI-H522	0.719
SW 900	0.759
NCI-H2009	0.263
NCI-H661	0.597
SK-LU-1	0.511
NCI-H1395	0.978
CAL-12T	0.399
NCI-H2228	0.522
NCI-H2023	0.499
NCI-H1793	0.403
NCI-H1944	0.419
NCI-H358	0.146

same assay, conditions: first compound 0.03162 µM

Cell Line	relative viability
NCI-H2342	0.735
NCI-H727	0.444
NCI-H1650	0.587
NCI-H1993	0.537
SW 1573	0.788
NCI-H838	0.562
LCLC-103H	0.686
NCI-H520	0.717
NCI-H2126	0.562
EMC-BAC-2	0.791
NCI-H2085	0.53
HCC-366	0.33
NCI-H1666	0.882
NCI-H596	0.847
LK-2	0.713
SK-MES-1	0.565

Cell Line	relative viability
COR-L23	0.555
COR-L 105	0.445
NCI-H2170	0.9
NCI-H522	0.825
SW 900	0.919
NCI-H2009	0.262
NCI-H661	0.617
SK-LU-1	0.517
NCI-H1395	0.991
CAL-12T	0.298
NCI-H2228	0.634
NCI-H2023	0.618
NCI-H1793	0.402
NCI-H1944	0.398
NCI-H358	0.158

same assay, conditions: first compound 0.1 µM

Cell Line	relative viability
NCI-H2342	0.89
NCI-H727	0.369
NCI-H1650	0.594
NCI-H1993	0.447
SW 1573	0.471
NCI-H838	0.412
LCLC-103H	0.717
NCI-H520	0.714
NCI-H2126	0.553
EMC-BAC-2	0.876
NCI-H2085	0.471
HCC-366	0.283
NCI-H1666	0.711
NCI-H596	0.737
LK-2	0.855
SK-MES-1	0.526

Cell Line	relative viability
COR-L23	0.573
COR-L 105	0.433
NCI-H2170	0.894
NCI-H522	0.752
SW 900	0.743
NCI-H2009	0.292
NCI-H661	0.61
SK-LU-1	0.521
NCI-H1395	1.15
CAL-12T	0.331
NCI-H2228	0.792
NCI-H2023	0.375
NCI-H1793	0.438
NCI-H1944	0.39
NCI-H358	0.133

same assay, conditions: first compound 0.3162 µM

Cell Line	relative viability
NCI-H2342	0.778
NCI-H727	0.375
NCI-H1650	0.694
NCI-H1993	0.462
SW 1573	0.465
NCI-H838	0.311
LCLC-103H	0.681
NCI-H520	0.583
NCI-H2126	0.597
EMC-BAC-2	0.699
NCI-H2085	0.608
HCC-366	0.122
NCI-H1666	0.81
NCI-H596	0.999
LK-2	0.618
NCI-H1648	0.432

Cell Line	relative viability
SK-MES-1	0.493
COR-L23	0.497
COR-L 105	0.477
NCI-H2170	1.02
NCI-H522	0.839
SW 900	0.962
NCI-H2009	0.319
NCI-H661	0.534
SK-LU-1	0.509
NCI-H1395	1.08
CAL-12T	0.33
NCI-H2228	0.723
NCI-H2023	0.276
NCI-H1793	0.428
NCI-H1944	0.413
NCI-H358	0.14

compound: COc1cc(-c2nn([C@H]3CC[C@H](N4CCN(C(C)=O)CC4)CC3)c3ncnc(N)c23)ccc1NC(=O)c1cc2ccccc2n1C + NC(=O)Nc1cc(-c2cccc(F)c2)sc1C(=O)N[C@H]1CCCNC1 [AZD7762] (partner 0.2 µM); assay: as above; conditions: first compound 0.0128 µM
How it was run: as §1

Cell Line	relative viability
NCI-H2342	0.464
NCI-H727	0.562
NCI-H1703	0.138
NCI-H1993	0.823
NCI-H838	1
LCLC-103H	0.828
NCI-H2126	1.06
EMC-BAC-2	1.13
NCI-H2085	1.08
HCC-366	0.252
NCI-H1666	0.821
NCI-H596	1.55
LK-2	0.485
NCI-H1648	0.686
NCI-H2170	0.914
NCI-H522	0.73
SW 900	0.547
NCI-H1395	0.459
CAL-12T	0.675
NCI-H1793	0.591
NCI-H1944	0.605
ABC-1	0.658
NCI-H358	0.496

same assay, conditions: first compound 0.04048 µM

Cell Line	relative viability
NCI-H2342	0.422
NCI-H1703	0.114
NCI-H1993	0.549
NCI-H838	0.921
LCLC-103H	0.787
NCI-H2126	0.988
EMC-BAC-2	1.28
NCI-H2085	0.929
HCC-366	0.221
NCI-H1666	0.841
NCI-H596	1.15
LK-2	0.243
NCI-H1648	0.609
NCI-H2170	0.928
NCI-H522	0.848
SW 900	0.564
NCI-H1395	0.394
CAL-12T	0.7
NCI-H1793	0.341
NCI-H1944	0.539
ABC-1	0.759
NCI-H358	0.5

same assay, conditions: first compound 0.128 µM

Cell Line	relative viability
NCI-H2342	0.477
NCI-H727	0.716
NCI-H1703	0.129
NCI-H1993	0.715
NCI-H838	0.91
LCLC-103H	0.759
NCI-H2126	0.976
EMC-BAC-2	1.09
NCI-H2085	0.854
HCC-366	0.246
NCI-H1666	0.802
NCI-H596	1.09
LK-2	0.321
NCI-H1648	0.75
NCI-H2170	0.788
NCI-H522	0.909
SW 900	0.612
NCI-H1395	0.402
CAL-12T	0.49
NCI-H1793	0.326
NCI-H1944	0.485
ABC-1	0.697
NCI-H358	0.444

same assay, conditions: first compound 1.28 µM

Cell Line	relative viability
NCI-H2342	0.361
NCI-H727	0.575
NCI-H1703	0.117
NCI-H1993	0.752
NCI-H838	0.75
LCLC-103H	0.703
NCI-H2126	0.817
EMC-BAC-2	1.09
NCI-H2085	0.427
HCC-366	0.193
NCI-H1666	0.741
NCI-H596	0.851
LK-2	0.188
NCI-H1648	0.566
NCI-H2170	0.6
NCI-H522	0.892
SW 900	0.402
NCI-H1395	0.322
CAL-12T	0.581
NCI-H1793	0.192
NCI-H1944	0.352
ABC-1	0.728
NCI-H358	0.225

Source: the supplement of paper PMC10307832
